In the supplement of paper PMC10307832:

How the values were obtained:
Assay in all cases: relative viability (nuclei count vs DMSO), 5 days (fraction); higher = more cells survive
[1] = compound: C1/C(=C\C2=CC=CS2)/C(=O)/C(=C/C3=CC=CS3)/C1 + C[C@]1(O)C[C@@H](c2nc(-c3ccc4ccc(-c5ccccc5)nc4c3)c3c(N)nccn32)C1 [Linsitinib] (partner 1 µM)
Summary of the method: (§1)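 For relative viability, nuclei counts in treated wells were divided by those in vehicle wells. Lung cancer cell lines had been pin-tool dosed in 1536-well plates the day after seeding and cultured for 5 days, then fixed and stained in one step (final 0.05% Triton X-100, 1% formaldehyde, 1 ug/ml Hoechst) and imaged at 4×. Doses were one drug alone or a fixed anchor-drug dose plus five library-drug doses (not always all listed) in √10 steps, and values are duplicate-plate medians.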

[2] = compound: C1/C(=C\C2=CC=CS2)/C(=O)/C(=C/C3=CC=CS3)/C1 + N=C(N)NC(=N)NCCc1ccccc1 [Phenformin] (partner 250 µM)
Summary of the method: as §1

[3] = compound: C1/C(=C\C2=CC=CS2)/C(=O)/C(=C/C3=CC=CS3)/C1 + CC(C)C[C@H](NC(=O)[C@H](Cc1ccccc1)NC(=O)c1cnccn1)B(O)O [Bortezomib] (partner 0.002 µM)
Summary of the method: as §1

Lestaurtinib + Dasatinib = compound: C[C@]12O[C@H](C[C@]1(O)CO)n1c3ccccc3c3c4c(c5c6ccccc6n2c5c31)CNC4=O [Lestaurtinib] + Cc1nc(Nc2ncc(C(=O)Nc3c(C)cccc3Cl)s2)cc(N2CCN(CCO)CC2)n1 [Dasatinib] (partner 0.075 µM)
Summary of the method: as §1

Cell Line	relative viability ([1]; first compound 0.2 µM)	relative viability ([1]; first compound 0.6325 µM)	relative viability ([1]; first compound 2 µM)	relative viability ([1]; first compound 6.325 µM)	relative viability ([1]; first compound 20 µM)	relative viability ([2]; first compound 0.2 µM)	relative viability ([2]; first compound 0.6325 µM)	relative viability ([2]; first compound 2 µM)	relative viability ([2]; first compound 6.325 µM)	relative viability ([2]; first compound 20 µM)	relative viability ([3]; first compound 0.2 µM)	relative viability ([3]; first compound 0.6325 µM)	relative viability ([3]; first compound 2 µM)	relative viability ([3]; first compound 6.325 µM)	relative viability ([3]; first compound 20 µM)	relative viability (Lestaurtinib + Dasatinib; first compound 0.005 µM)	relative viability (Lestaurtinib + Dasatinib; first compound 0.01581 µM)	relative viability (Lestaurtinib + Dasatinib; first compound 0.05 µM)	relative viability (Lestaurtinib + Dasatinib; first compound 0.1581 µM)	relative viability (Lestaurtinib + Dasatinib; first compound 0.5 µM)
NCI-H647	1.27	1.36	1.03	0.969	1.17	0.55	0.505	0.579	0.474	0.485	0.877	1.09	1.11	0.627	0.912	0.278	0.147	0.0914	0.0755	0.0624
NCI-H1755	1.06	1.07	1.04	0.818	0.939	0.636	0.642	0.63	0.505	0.61	1.01	0.897	1.03	0.853	0.928	0.439	0.424	0.293	0.288	0.208
EPLC-272H	1.29	1.07	1.22	1.19	1.03	0.289	0.318	0.298	0.238	0.276	0.957	0.903	0.93	1.01	0.839	0.282	0.301	0.169	0.187	0.125
NCI-H1437	1.1	1.04	0.993	0.984	0.986	0.294	0.281	0.402	0.26	0.318	0.544	0.503	0.479	0.495	0.479	0.442	0.475	0.331	0.382	0.265
EKVX	1.1	1.05	0.974	0.776	1	0.252	0.247	0.218	0.231	0.249	1.11	1.02	1.12	0.933	1.1	0.477	0.735	0.562	0.576	0.373
NCI-H1651	1.11	1.06	0.92		1.05	0.352	0.372	0.446	0.26	0.323	0.876	0.995	0.916	0.914	0.925	0.395	0.557	0.393	0.443	0.248
HCC-15	0.899	0.921	0.846	0.734	0.888	0.516	0.467	0.545	0.445	0.442	1.06	1.03	1.03	0.884	1.03	0.73	0.702	0.485	0.38	0.169
LCLC-103H	1.12	1.16	1.15	0.975	0.995	0.326	0.329	0.361	0.288	0.356	1.1	0.998	1.08	1	1.07	0.474	0.464	0.405	0.325	0.224
NCI-H23	0.584	0.51	0.67	0.437	0.643	0.775	0.863	0.828	0.78	0.699	1.17	1.05	0.953	0.983	1.01	0.856	0.911	0.739	0.847	0.483
NCI-H1792	0.523	0.618	0.617		0.451	0.514	0.273	0.67	0.287	0.322	0.968	0.957	1.06		0.832	1.04	1.33	0.65	0.835	0.616
NCI-H596	1.15	1.04	1.02	1.01	1.04	0.711	0.799	0.846	0.78	0.857	0.868	1.07	1.19	1.08		0.669	0.6	0.678	0.694	0.564
NCI-H1563	1.43	1.16	1.28	0.893	1.08	0.672	0.66	0.655	0.614	0.593	1.01	0.912	1.11	0.86	0.859	0.487	0.447	0.499	0.409	0.362
NCI-H460	0.838	0.976	0.694		0.728	0.543	0.568	0.519	0.344	0.522	1.12	1.26	1.17		1.09	0.505	0.583	0.505	0.388	0.247
HCC-366	0.701	0.574	0.647	0.467	0.6	0.569	0.638	0.625	0.55	0.613	1.03	1.09	1.07	0.893	1.07	0.74	0.659	0.518	0.516	0.185
NCI-H2085	1.05	0.941	0.805	0.797	1.05	0.81	0.791	0.839	0.619	0.644	1.16	1.08	1.15	1.02	1.03	0.236	0.265	0.3	0.335	0.496
PC-14	0.96	0.919	0.922	0.829	0.981	0.823	0.762	0.611	0.539	0.631	0.904	0.763	0.837	0.742	0.98	0.294	0.286	0.231	0.13	0.0741
HOP-62	1.09	0.879	0.853	0.982	0.815	0.686	0.714	0.531	0.664	0.672	0.619	0.765	0.94	0.979	0.634	0.66	0.721	0.504	0.499	0.241
NCI-H2087	1.06	1.05	0.928	0.678	0.936	0.5	0.546	0.553	0.393	0.431	0.922	0.742	0.963	0.512	0.73	0.843	0.81	0.494	0.724	0.319
PC-3 [JPC-3]	1.1	0.956	0.949	0.891	0.949	0.494	0.495	0.452	0.423	0.458	0.845	0.956	0.88	0.76	0.884	1.01	1.02	0.843	0.857	0.483
H3255	0.949	0.92	0.909	0.728	0.913	0.377	0.324	0.352	0.34	0.309	0.778	0.82	0.71	0.84	0.618	0.291	0.428	0.299	0.342	0.323
EMC-BAC-2	0.811	0.787	0.84	0.761	0.792	0.549	0.513	0.558	0.521	0.521	1.16	1.08	1.19	0.967	1.02	0.291	0.2	0.255	0.25	0.19
CAL-12T	0.837	0.964	0.764	0.744	0.92	0.651	0.672	0.562	0.585	0.574	1.1	1.09	1.18	0.976	1.04	0.447	0.413	0.306	0.307	0.153
NCI-H650	0.96	0.86	0.896	0.903	0.803	0.43	0.442	0.465	0.45	0.449	0.974	0.849	0.961	1.02	0.768	0.405	0.397	0.301	0.315	0.232
NCI-H1355	0.906	0.744	0.863	0.666	0.758	0.512	0.492	0.465	0.397	0.434	1.21	1.2	1.21	1.1	1.14	0.639	0.777	0.58	0.495	0.259
NCI-H838	1.12	0.979	0.955	0.8	0.94	0.689	0.541	0.687	0.65	0.519	0.864	0.787	0.912	0.655	0.782	0.281	0.296	0.264	0.286	0.216
NCI-H322M	0.995	0.909	1.11	0.81	0.845	0.85	0.814	0.923	0.628	0.768	1.17	1.31	1.3	1.19	1.12	0.233	0.279	0.277	0.293	0.339
NCI-H661	0.692	0.465	0.508	0.559	0.48	0.288	0.259	0.275	0.253	0.307	0.857	0.716	0.858	0.738	0.732	0.99	0.953	0.851	0.81	0.319
NCI-H2228	0.764	0.628	1.16	0.563	0.631	0.422	0.297	0.369	0.335	0.357	1.11	0.987	1.44	0.808	0.86	0.494	0.546	0.497	0.22	0.18
NCI-H520	0.953	1.09	0.941	1.02	0.795	0.744	0.605	0.766	0.535	0.443	0.575	0.763	0.601	0.401	0.533	0.209	0.203	0.164	0.169	0.159
NCI-H441	0.627	0.692	0.664	0.547	0.583	0.826	1.01	0.955	0.77	0.772	0.617	0.516	0.351	0.447	0.482	0.521	0.58	0.431	0.548	0.482
